Source: PubChem BioAssay AID2060613 (Molecular Pharmacology Branch, DTP, NCI, 2025)

System: 233499-124-R-J3-PDC complex spheroid viability
Experiment: Anticancer human tumor 233499-124-R-J3-PDC patient-derived colon adenocarcinoma cell line growth inhibition [CLK]
Conditions: for viability, T/C: stronger effect = lower value
How it was run: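 Patient-derived tumor cells grown as complex spheroids with HUVEC endothelial cells and mesenchymal stem cells, treated with drug combinations. Concentrations descend in half-log steps from near clinical Cmax, or from 10 microM if Cmax unknown.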

[1] = curve of first compound, second compound 0.0316 µM
[2] = curve of first compound, second compound 0.1 µM
[3] = curve of first compound, second compound 0.316 µM
[4] = curve of first compound, second compound 1 µM
[5] = curve of first compound, second compound 3.16 µM
[6] = curve of first compound, second compound 10 µM
[7] = second compound 0.0316 µM, first compound 0.0316 µM
[8] = second compound 0.0316 µM, first compound 0.1 µM
[9] = second compound 0.0316 µM, first compound 0.316 µM
[10] = second compound 0.0316 µM, first compound 1 µM
[11] = second compound 0.0316 µM, first compound 3.16 µM
[12] = second compound 0.0316 µM, first compound 10 µM
[13] = second compound 0.1 µM, first compound 0.0316 µM
[14] = second compound 0.1 µM, first compound 0.1 µM
[15] = second compound 0.1 µM, first compound 0.316 µM
[16] = second compound 0.1 µM, first compound 1 µM
[17] = second compound 0.1 µM, first compound 3.16 µM
[18] = second compound 0.1 µM, first compound 10 µM
[19] = second compound 0.316 µM, first compound 0.0316 µM
[20] = second compound 0.316 µM, first compound 0.1 µM
[21] = second compound 0.316 µM, first compound 0.316 µM
[22] = second compound 0.316 µM, first compound 1 µM
[23] = second compound 0.316 µM, first compound 3.16 µM
[24] = second compound 0.316 µM, first compound 10 µM
[25] = second compound 1 µM, first compound 0.0316 µM
[26] = second compound 1 µM, first compound 0.1 µM
[27] = second compound 1 µM, first compound 0.316 µM
[28] = second compound 1 µM, first compound 1 µM
[29] = second compound 1 µM, first compound 3.16 µM
[30] = second compound 1 µM, first compound 10 µM
[31] = second compound 3.16 µM, first compound 0.0316 µM
[32] = second compound 3.16 µM, first compound 0.1 µM
[33] = second compound 3.16 µM, first compound 0.316 µM
[34] = second compound 3.16 µM, first compound 1 µM
[35] = second compound 3.16 µM, first compound 3.16 µM
[36] = second compound 3.16 µM, first compound 10 µM
[37] = second compound 10 µM, first compound 0.0316 µM
[38] = second compound 10 µM, first compound 0.1 µM
[39] = second compound 10 µM, first compound 0.316 µM
[40] = second compound 10 µM, first compound 1 µM
[41] = second compound 10 µM, first compound 3.16 µM
[42] = second compound 10 µM, first compound 10 µM
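Also: spheroids exposed to the drug combinations for seven days.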
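For viability, T/C in this document: percent viability relative to DMSO vehicle control wells taken as 100%.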

Molecule `COc1ccc([C@@H](O)c2cc(-c3ncnc4cc(N5CCOCC5)ccc34)c(F)cc2Cl)nn1` + CN1CCN(c2cc(C(=O)Nc3cc4cc(-c5cnn(C)c5)ccc4cn3)ccn2)CC1 has an IC50 [1] greater than 10000 nM, an IC50 [2] of 9830 nM and an IC50 [3] of 8500 nM. The IC50 [4] was less than 31.6 nM, the IC50 [5] was less than 31.6 nM and the IC50 [6] was less than 31.6 nM. The viability, T/C [7] was 101%, the viability, T/C [8] was 99.3% and the viability, T/C [9] was 102%. The viability, T/C [10] was 105%, the viability, T/C [11] was 83% and the viability, T/C [12] was 56.7%. The viability, T/C [13] was 98.7%, the viability, T/C [14] was 95% and the viability, T/C [15] was 105%. For the same molecule, the viability, T/C [16] was 93.7%, the viability, T/C [17] was 78.9% and the viability, T/C [18] was 49.5%. For the same molecule, the viability, T/C [19] was 80.5%, the viability, T/C [20] was 92.5% and the viability, T/C [21] was 96%. For the same molecule, the viability, T/C [22] was 88.3%, the viability, T/C [23] was 87.7% and the viability, T/C [24] was 43.8%. The viability, T/C [25] was 0.59%, the viability, T/C [26] was 0.54% and the viability, T/C [27] was 0.4%. The viability, T/C [28] was 0.92%, the viability, T/C [29] was 0.89% and the viability, T/C [30] was 0.79%. The viability, T/C [31] was 0.54%, the viability, T/C [32] was 0.7% and the viability, T/C [33] was 0.68%. It also gave a viability, T/C [34] of 0.83%, a viability, T/C [35] of 0.94% and a viability, T/C [36] of 1.93%. For the same molecule, the viability, T/C [37] was 0.36%, the viability, T/C [38] was 0.41% and the viability, T/C [39] was 0.43%. For the same molecule, the viability, T/C [40] was 0.46%, the viability, T/C [41] was 0.73% and the viability, T/C [42] was 1.14%.

`C#Cc1c(F)ccc2cc(O)cc(-c3ncc4c(N5CC6CCC(C5)N6)nc(OCC56CCCN5CC(F)C6)nc4c3F)c12` (stereo not drawn) + CN1CCN(c2cc(C(=O)Nc3cc4cc(-c5cnn(C)c5)ccc4cn3)ccn2)CC1 gave an IC50 [1] greater than 10000 nM, an IC50 [2] greater than 10000 nM and an IC50 [3] greater than 10000 nM. For the same molecule, the IC50 [4] was less than 31.6 nM, the IC50 [5] was less than 31.6 nM and the IC50 [6] was less than 31.6 nM. It also gave a viability, T/C [7] of 80.6%, a viability, T/C [8] of 96.9% and a viability, T/C [9] of 92.9%. It also gave a viability, T/C [10] of 91.9%, a viability, T/C [11] of 98.1% and a viability, T/C [12] of 76.8%. The viability, T/C [13] was 87.4%, the viability, T/C [14] was 99.8% and the viability, T/C [15] was 109%. It also gave a viability, T/C [16] of 94.1%, a viability, T/C [17] of 85.7% and a viability, T/C [18] of 71.4%. The viability, T/C [19] was 90.7%, the viability, T/C [20] was 92% and the viability, T/C [21] was 102%. For the same molecule, the viability, T/C [22] was 98.5%, the viability, T/C [23] was 81.9% and the viability, T/C [24] was 66.4%. It also gave a viability, T/C [25] of 3.8%, a viability, T/C [26] of 4.61% and a viability, T/C [27] of 1.85%. For the same molecule, the viability, T/C [28] was 9.57%, the viability, T/C [29] was 2.33% and the viability, T/C [30] was 1.27%. For the same molecule, the viability, T/C [31] was 0.59%, the viability, T/C [32] was 0.56% and the viability, T/C [33] was 0.97%. It also gave a viability, T/C [34] of 0.63%, a viability, T/C [35] of 1.43% and a viability, T/C [36] of 0.5%. The viability, T/C [37] was 0.45%, the viability, T/C [38] was 0.45% and the viability, T/C [39] was 0.43%. For the same molecule, the viability, T/C [40] was 0.39%, the viability, T/C [41] was 0.39% and the viability, T/C [42] was 0.8%.

`CCN1CCN(Cc2ccc(Nc3ncc(F)c(-c4cc(F)c5nc(C)n(C(C)C)c5c4)n3)nc2)CC1` + CNC(=O)c1ccc(Nc2nc(OC3CCCC3)c3c(-c4ccc5nc(C)oc5c4)c[nH]c3n2)c(OC)c1 gave an IC50 [1] greater than 1000 nM, an IC50 [2] greater than 1000 nM and an IC50 [3] greater than 1000 nM. For the same molecule, the IC50 [4] was 971 nM, the IC50 [5] was greater than 1000 nM and the IC50 [6] was greater than 1000 nM. For the same molecule, the viability, T/C (second compound 0.0316 µM, first compound 0.00316 µM) was 88.3%, the viability, T/C (second compound 0.0316 µM, first compound 0.01 µM) was 98.3% and the viability, T/C [7] was 90%. It also gave a viability, T/C [8] of 106%, a viability, T/C [9] of 102% and a viability, T/C [10] of 70.1%. The viability, T/C (second compound 0.1 µM, first compound 0.00316 µM) was 71.7%, the viability, T/C (second compound 0.1 µM, first compound 0.01 µM) was 91.6% and the viability, T/C [13] was 84.8%. For the same molecule, the viability, T/C [14] was 83.8%, the viability, T/C [15] was 89.3% and the viability, T/C [16] was 64%. For the same molecule, the viability, T/C (second compound 0.316 µM, first compound 0.00316 µM) was 68.8%, the viability, T/C (second compound 0.316 µM, first compound 0.01 µM) was 84.3% and the viability, T/C [19] was 78%. For the same molecule, the viability, T/C [20] was 94.2%, the viability, T/C [21] was 62.7% and the viability, T/C [22] was 53.1%. For the same molecule, the viability, T/C (second compound 1 µM, first compound 0.00316 µM) was 77.2%, the viability, T/C (second compound 1 µM, first compound 0.01 µM) was 85.9% and the viability, T/C [25] was 74.3%. For the same molecule, the viability, T/C [26] was 85.3%, the viability, T/C [27] was 84.5% and the viability, T/C [28] was 49.2%. It also gave a viability, T/C (second compound 3.16 µM, first compound 0.00316 µM) of 81.1%, a viability, T/C (second compound 3.16 µM, first compound 0.01 µM) of 75.2% and a viability, T/C [31] of 78.1%. The viability, T/C [32] was 78.7%, the viability, T/C [33] was 97.2% and the viability, T/C [34] was 57.6%. It also gave a viability, T/C (second compound 10 µM, first compound 0.00316 µM) of 76.4%, a viability, T/C (second compound 10 µM, first compound 0.01 µM) of 80.9% and a viability, T/C [37] of 66.8%. It also gave a viability, T/C [38] of 74.5%, a viability, T/C [39] of 60.1% and a viability, T/C [40] of 51.1%.

For `CC(Nc1ccc2c(c1)OCCn1cc(N3C(=O)OCC3C(F)F)nc1-2)C(N)=O` (stereo not drawn), the viability, T/C (compound 0.0316 µM) was 94%, the viability, T/C (compound 0.1 µM) was 83.7% and the viability, T/C (compound 0.316 µM) was 79.8%. For the same molecule, the viability, T/C (compound 1 µM) was 74.8%, the viability, T/C (compound 3.16 µM) was 61.7% and the viability, T/C (compound 10 µM) was 51.9%. It also gave an IC50 (curve of compound) greater than 10000 nM.
